Laboratory results from US9815841B2, “Compounds” (GLAXOSMITHKLINE INTELLECTUAL PROPERTY DEVELOPMENT LIMITED, priority 2014, dated 2017).

Molecular target: T1, recombinant full length LRRK2 over-expressed in SH-SY5Y cells (Homo sapiens, UniProt Q5S007)
T1 construct: A BacMam virus expressing full length recombinant LRRK2 was purchased from Invitrogen; host or cells: SH-SY5Y human neuroblastoma cells transduced with BacMam LRRK2 virus
Assay: Recombinant cellular LRRK2 AlphaScreen assay (LRRK2 Ser935 phosphorylation)
Assay type: cell-based
Settings: SH-SY5Y cells with BacMam LRRK2, 60 minutes compound incubation, read-out: recombinant cellcular LRRK2 alphaScreen assay (pIC50) (converted)
Description: Recombinant Cellular LRRK2 AlphaScreen Assay
A BacMam virus expressing full length recombinant LRRK2 was purchased from Invitrogen and amplified by inoculation of SF-9 cells at MOI 0.3 for 4-5 days in Sf-900 III SFM medium supplemented with 3% fetal bovine serum. Infected cell cultures were then centrifuged at 2000 g for 20 minutes, viral supernatant titer determined by anti-gp64 plaque assay and stored at 4° C.
Affinity-purified anti-phospho LRRK2 Ser935 sheep polyclonal antibody (Dzamko et al., 2010, Biochem. J. 430: 405-413) was biotinylated by standard methods (PerkinElmer). Anti-LRRK2 rabbit polyclonal antibody was purchased from Novus Biologicals. AlphaScreen Protein A IgG Kit (including acceptor and donor beads) was purchased from Perkin Elmer.
SH-SY5Y cells were grown in DMEM/F12 medium with 10% dialysed fetal bovine serum and harvested by treatment with 0.5% trypsin-EDTA for 5 minutes at […] followed by centrifugation at 1000 rpm for 4 minutes. The cell pellet was resuspended in Opti-MEM reduced serum media (Invitrogen) at 200,000 cells/ml and mixed with the BacMam LRRK2 virus at MOI=50. 50 μl cell solutions were then dispensed to each well of a 384-well plate and incubated at 37° C., 5% CO2 for 24 hours.
Serial dilutions of test compounds were prepared in Opti-MEM reduced serum media (Invitrogen) and 5.6 ul transferred from compound plate to cell assay plate to achieve a top final assay concentration of 10 uM. DMSO was used in certain wells as controls. Cells were incubated at 37° C., 5% CO2 for 60 minutes. The medium was then removed and cells lysed by addition of 20 ul cell lysis buffer (Cell Signaling Technology) and incubation at 4° C. for 20 minutes. 10 ul of antibody/acceptor bead mix [(1/1000 biotinylated-pS935 LRRK2 antibody, 1/1000 total-LRRK2 antibody, 1/100 Acceptor beads in AlphaScreen detection buffer (25 mM Hepes (pH 7.4), 0.5% Triton X-100, 1 mg/ml Dextran 500 and 0.1% BSA)] was then added to each well and plates incubated for 2 hours at ambient temperature in the dark. 10 μl of donor beads solution (1/33.3 donor beads in AlphaScreen detection buffer) was then added to each well. Following incubation for a further 2 hours at ambient temperature in the dark, plates were read on an EnVision™ plate reader at emission 520-620 nm with excitation 680 nm. Dose response curve data was based on sigmoidal dose-response model.

T1 sequence (Q5S007 whole entry): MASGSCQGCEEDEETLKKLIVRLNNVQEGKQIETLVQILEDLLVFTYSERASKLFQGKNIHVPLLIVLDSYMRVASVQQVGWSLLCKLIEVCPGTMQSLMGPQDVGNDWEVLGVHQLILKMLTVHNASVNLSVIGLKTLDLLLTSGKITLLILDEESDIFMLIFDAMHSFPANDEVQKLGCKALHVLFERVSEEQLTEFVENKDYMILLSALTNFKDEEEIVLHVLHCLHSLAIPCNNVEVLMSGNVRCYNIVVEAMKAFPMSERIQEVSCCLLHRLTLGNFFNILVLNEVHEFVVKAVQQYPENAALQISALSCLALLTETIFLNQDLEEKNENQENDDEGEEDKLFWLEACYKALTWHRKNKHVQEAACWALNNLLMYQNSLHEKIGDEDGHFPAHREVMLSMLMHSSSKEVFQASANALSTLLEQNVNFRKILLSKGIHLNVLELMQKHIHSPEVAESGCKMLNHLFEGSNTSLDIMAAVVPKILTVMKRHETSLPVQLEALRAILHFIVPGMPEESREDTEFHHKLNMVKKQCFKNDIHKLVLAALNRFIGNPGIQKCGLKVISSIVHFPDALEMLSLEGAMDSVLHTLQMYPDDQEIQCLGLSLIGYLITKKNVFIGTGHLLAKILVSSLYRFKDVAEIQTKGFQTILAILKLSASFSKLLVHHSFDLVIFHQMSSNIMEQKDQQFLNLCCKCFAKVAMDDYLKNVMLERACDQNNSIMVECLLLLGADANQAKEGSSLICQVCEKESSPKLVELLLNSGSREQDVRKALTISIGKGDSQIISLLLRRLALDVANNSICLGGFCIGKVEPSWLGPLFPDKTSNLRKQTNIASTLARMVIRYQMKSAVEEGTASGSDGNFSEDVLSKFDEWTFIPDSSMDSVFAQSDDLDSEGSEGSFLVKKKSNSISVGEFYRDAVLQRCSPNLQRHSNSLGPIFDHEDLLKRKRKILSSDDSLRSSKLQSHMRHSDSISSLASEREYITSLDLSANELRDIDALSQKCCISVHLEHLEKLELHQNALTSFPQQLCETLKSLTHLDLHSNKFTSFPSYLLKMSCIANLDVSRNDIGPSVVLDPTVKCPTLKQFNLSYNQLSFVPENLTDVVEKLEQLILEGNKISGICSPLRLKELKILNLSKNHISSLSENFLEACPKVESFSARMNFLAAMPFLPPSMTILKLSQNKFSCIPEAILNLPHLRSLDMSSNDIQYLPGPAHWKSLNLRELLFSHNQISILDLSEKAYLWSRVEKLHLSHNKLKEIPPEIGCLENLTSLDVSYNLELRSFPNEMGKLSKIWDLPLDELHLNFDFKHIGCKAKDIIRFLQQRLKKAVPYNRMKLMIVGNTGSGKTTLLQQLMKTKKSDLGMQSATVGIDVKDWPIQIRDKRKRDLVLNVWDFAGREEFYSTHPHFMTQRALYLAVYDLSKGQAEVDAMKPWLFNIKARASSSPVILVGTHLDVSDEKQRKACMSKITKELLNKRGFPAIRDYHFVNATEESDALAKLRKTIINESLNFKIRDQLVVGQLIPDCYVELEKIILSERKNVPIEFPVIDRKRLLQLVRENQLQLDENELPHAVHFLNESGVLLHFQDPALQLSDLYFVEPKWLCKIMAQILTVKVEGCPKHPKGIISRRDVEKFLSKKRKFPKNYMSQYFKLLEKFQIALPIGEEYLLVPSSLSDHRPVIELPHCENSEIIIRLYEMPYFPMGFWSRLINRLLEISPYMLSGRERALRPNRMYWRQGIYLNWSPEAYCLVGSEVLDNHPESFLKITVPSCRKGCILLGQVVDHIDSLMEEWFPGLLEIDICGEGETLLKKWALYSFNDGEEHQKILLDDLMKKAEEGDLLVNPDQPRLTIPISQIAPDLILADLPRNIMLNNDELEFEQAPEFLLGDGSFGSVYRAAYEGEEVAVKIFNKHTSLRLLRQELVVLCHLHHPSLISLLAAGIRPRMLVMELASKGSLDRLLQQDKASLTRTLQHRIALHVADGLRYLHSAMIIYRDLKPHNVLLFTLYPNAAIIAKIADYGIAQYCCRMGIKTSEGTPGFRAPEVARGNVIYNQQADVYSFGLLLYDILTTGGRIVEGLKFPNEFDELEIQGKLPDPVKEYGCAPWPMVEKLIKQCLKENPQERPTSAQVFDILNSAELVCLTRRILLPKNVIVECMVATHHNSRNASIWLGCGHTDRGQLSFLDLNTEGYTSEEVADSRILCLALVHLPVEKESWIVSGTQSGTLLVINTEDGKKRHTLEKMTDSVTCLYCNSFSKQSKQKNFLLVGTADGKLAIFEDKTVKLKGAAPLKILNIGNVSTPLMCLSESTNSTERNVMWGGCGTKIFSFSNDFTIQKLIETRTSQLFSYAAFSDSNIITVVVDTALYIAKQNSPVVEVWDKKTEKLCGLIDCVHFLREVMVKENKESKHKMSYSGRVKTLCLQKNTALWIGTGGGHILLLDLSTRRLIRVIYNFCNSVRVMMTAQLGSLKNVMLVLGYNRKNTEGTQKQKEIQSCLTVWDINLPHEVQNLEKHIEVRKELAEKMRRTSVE

SMILES | IC50 [nM]
CCOc1nc(Nc2ccc(C(=O)N3CCN(C)CC3)cc2)nc2[nH]ccc12 [Example E15, (4-((4-ethoxy-7H-pyrrolo-[2,3-d]-pyrimidin-2-yl)amino)phenyl)(4-methylpiperazin-1-yl)methanone] | ≤ 100
CCOc1nc(Nc2ccc(C(=O)N3CCOCC3)c(OC)c2)nc2[nH]ccc12 [Example E18, (4-((4-ethoxy-7H-pyrrolo-[2,3-d]-pyrimidin-2-yl)amino)-2-methoxyphenyl)(morpholino)methanone] | ≤ 100
CCOc1nc(Nc2ccc(C(=O)N3CCOC[C@H]3C)cc2OC)nc2[nH]ccc12 [Example E30, (R)-(4-((4-ethoxy-7H-pyrrolo[2,3-d]pyrimidin-2-yl)amino)-3-methoxyphenyl)(3-methylmorpholino)methanone] | ≤ 100
CCOc1nc(Nc2ccc(C(=O)N3CCOCC3)cc2OC)nc2[nH]cc(C)c12 [Example E32, (4-((4-ethoxy-5-methyl-7H-pyrrolo-[2,3-d]pyrimidin-2-yl)amino)-3-methoxyphenyl)(morpholino)methanone] | ≤ 100

Other lines, results leading:

IC50 [nM] | SMILES
≤ 100 | COc1cc(C(=O)N2CCN(C)CC2)ccc1Nc1nc(OCC2CC2)c2cc[nH]c2n1 [Example E33, (4-((4-(cyclopropylmethoxy)-7H-pyrrolo-[2,3-d]pyrimidin-2-yl)amino)-3-methoxyphenyl)(4-methylpiperazin-1-yl) methanone]
≤ 100 | COc1cc(C(=O)N2CCOCC2)ccc1Nc1nc(OCC2CC2)c2cc[nH]c2n1 [Example E34, (4-((4-(cyclopropylmethoxy)-7H-pyrrolo-[2,3-d]pyrimidin-2-yl)amino)-3-methoxyphenyl)(morpholino)methanone]
≤ 100 | CCOc1nc(Nc2ccc(C(=O)N3CCOCC3)cc2OC)nc2[nH]cc(C#N)c12 [Example E59, 4-ethoxy-2-((2-methoxy-4-(morpholine-4-carbonyl)phenyl)amino)-7H-pyrrolo[2,3-d]pyrimidine-5-carbonitrile]
